Biological target: PD-1/PD-L1 (Homo sapiens (Human), UniProt Q9NZQ7)
Test: PD-1/PD-L1 binding assay (HTRF)
In short: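 HTRF read-out (665/620 nm) after 60 min at 25 °C with 1 nM Eu anti-human IgG and 20 nM APC anti-His. Beforehand, inhibitors were preincubated 40 min with Fc-PD-1 (25-167, […] as listed) and His-PD-L1 (19-238, 10 nM) in PBS pH 7.4 with Tween-20, BSA, 1% DMSO; IC50 from log-concentration curve.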

PD-1/PD-L1, sequence (Q9NZQ7 19-238): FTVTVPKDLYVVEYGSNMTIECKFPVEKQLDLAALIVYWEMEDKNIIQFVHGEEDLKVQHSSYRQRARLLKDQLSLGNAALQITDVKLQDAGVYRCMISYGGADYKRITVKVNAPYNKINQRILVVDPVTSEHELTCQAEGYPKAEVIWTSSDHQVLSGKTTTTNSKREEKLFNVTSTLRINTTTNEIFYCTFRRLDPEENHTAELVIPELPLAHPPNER

Row | Compound | IC50 [nM]
1 | Cc1c(NC(=O)c2cc(CN3CCCC3)cn(C)c2=O)cccc1-c1cccc(NC(=O)c2nc3c(n2C)CCN(C[C@H](C)O)C3)c1Cl [Example 52, (S)—N-(2-chloro-2′-methyl-3′-(1-methyl-2-oxo-5-(pyrrolidin-1-ylmethyl)-1,2-dihydropyridine-3-carboxamido)biphenyl-3-yl)-5-(2-hydroxypropyl)-1-methyl-4,5,6,7-tetrahydro-1H-imidazo[4,5-c]pyridine-2-carboxamide] | ≤ 10
2 | Cc1c(-c2nc3c(s2)CN(C(=O)CN(C)C)C3)cccc1-c1cccc(NC(=O)c2nc3c(n2C)CCN(C)C3)c1Cl [Example 53, N-(2-chloro-3′-(5-(2-(dimethylamino)acetyl)-5,6-dihydro-4H-pyrrolo[3,4-d]thiazol-2-yl)-2′-methylbiphenyl-3-yl)-1,5-dimethyl-4,5,6,7-tetrahydro-1H-imidazo[4,5-c]pyridine-2-carboxamide] | ≤ 10
3 | Cc1c(COc2cc(OCc3cncc(C#N)c3)c(CN3CCCC[C@H]3C(=O)O)cc2Cl)cccc1-c1cccc(NC(=O)c2nc3c(n2C)CCN(C)C3)c1Cl [Example 54, (S)-1-(5-chloro-4-((2′-chloro-3′-(1,5-dimethyl-4,5,6,7-tetrahydro-1H-imidazo[4,5-c]pyridine-2-carboxamido)-2-methyl-[1,1′-biphenyl]-3-yl)methoxy)-2-((5-cyanopyridin-3-yl)methoxy)benzyl)piperidine-2-carboxylic acid] | ≤ 10
4 | Cn1c(C(=O)Nc2cccc(-c3cccc(NC(=O)c4nc5c(n4C)CCN(C[C@H]4CC[C@H](C(=O)O)CC4)C5)c3Cl)c2Cl)nc2c1CCNC2 [Example 61, trans-4-((2-(2,2′-dichloro-3′-(1-methyl-4,5,6,7-tetrahydro-1H-imidazo[4,5-c]pyridine-2-carboxamido)biphenyl-3-ylcarbamoyl)-1-methyl-6,7-dihydro-1H-imidazo[4,5-c]pyridin-5(4H)-yl)methyl)cyclohexane-1-carboxylic acid] | ≤ 10
5 | Cn1c(C(=O)Nc2cccc(-c3cccc(NC(=O)c4nc5c(n4C)CCN(C[C@H]4CC[C@H](C(=O)O)CC4)C5)c3Cl)c2Cl)nc2c1CCN(CC1CC1)C2 [Example 63, trans-4-((2-(2,2′-dichloro-3′-(5-(cyclopropylmethyl)-1-methyl-4,5,6,7-tetrahydro-1H-imidazo[4,5-c]pyridine-2-carboxamido)biphenyl-3-ylcarbamoyl)-1-methyl-6,7-dihydro-1H-imidazo[4,5-c]pyridin-5(4H)-yl)methyl)cyclohexane-1-carboxylic acid] | ≤ 10
6 | Cn1c(C(=O)Nc2cccc(-c3cccc(NC(=O)c4nc5c(n4C)CCN(C4CCOCC4)C5)c3Cl)c2Cl)nc2c1CCN(C[C@H]1CC[C@H](C(=O)O)CC1)C2 [Example 64, trans-4-((2-(2,2′-dichloro-3′-(1-methyl-5-(tetrahydro-2H-pyran-4-yl)-4,5,6,7-tetrahydro-1H-imidazo[4,5-c]pyridine-2-carboxamido)biphenyl-3-ylcarbamoyl)-1-methyl-6,7-dihydro-1H-imidazo[4,5-c]pyridin-5(4H)-yl)methyl)cyclohexane-1-carboxylic acid] | ≤ 10
7 | Cn1c(C(=O)Nc2cccc(-c3cccc(NC(=O)c4nc5c(n4C)CCN(C[C@H]4CC[C@@H](C(=O)O)CC4)C5)c3Cl)c2Cl)nc2c1CCNC2 [Example 68, cis-4-((2-((2,2′-dichloro-3′-(1-methyl-4,5,6,7-tetrahydro-1H-imidazo[4,5-c]pyridine-2-carboxamido)-[1,1′-biphenyl]-3-yl)carbamoyl)-1-methyl-1,4,6,7-tetrahydro-5H-imidazo[4,5-c]pyridin-5-yl)methyl)cyclohexane-1-carboxylic acid] | ≤ 10
8 | CC(C)N1CCc2c(nc(C(=O)Nc3cccc(-c4cccc(NC(=O)c5nc6c(n5C)CCN(C[C@H]5CC[C@@H](C(=O)O)CC5)C6)c4Cl)c3Cl)n2C)C1 [Example 72, cis-4-((2-((2,2′-dichloro-3′-(5-isopropyl-1-methyl-4,5,6,7-tetrahydro-1H-imidazo[4,5-c]pyridine-2-carboxamido)-[1,1′-biphenyl]-3-yl)carbamoyl)-1-methyl-1,4,6,7-tetrahydro-5H-imidazo[4,5-c]pyridin-5-yl)methyl)cyclohexane-1-carboxylic acid] | ≤ 10
9 | Cn1c(C(=O)Nc2cccc(-c3cccc(NC(=O)c4nc5c(n4C)CCN(C4CCOCC4)C5)c3Cl)c2Cl)nc2c1CCN(C[C@H]1CC[C@@H](C(=O)O)CC1)C2 [Example 73, cis-4-((2-((2,2′-dichloro-3′-(1-methyl-5-(tetrahydro-2H-pyran-4-yl)-4,5,6,7-tetrahydro-1H-imidazo[4,5-c]pyridine-2-carboxamido)-[1,1′-biphenyl]-3-yl)carbamoyl)-1-methyl-1,4,6,7-tetrahydro-5H-imidazo[4,5-c]pyridin-5-yl)methyl)cyclohexane-1-carboxylic acid] | ≤ 10

Continued, values first:

Row | IC50 [nM] | Compound
10 | ≤ 10 | CN1CCc2c(nc(C(=O)Nc3cccc(-c4cccc(NC(=O)c5nc6c(n5C)CCN(C[C@H]5CC[C@H](C(=O)O)CC5)C6)c4Cl)c3Cl)n2C)C1 [Example 60, trans-4-((2-(2,2′-dichloro-3′-(1,5-dimethyl-4,5,6,7-tetrahydro-1H-imidazo[4,5-c]pyridine-2-carboxamido)biphenyl-3-ylcarbamoyl)-1-methyl-6,7-dihydro-1H-imidazo[4,5-c]pyridin-5(4H)-yl)methyl)cyclohexane-1-carboxylic acid]
11 | ≤ 10 | CCN1CCc2c(nc(C(=O)Nc3cccc(-c4cccc(NC(=O)c5nc6c(n5C)CCN(C[C@H]5CC[C@H](C(=O)O)CC5)C6)c4Cl)c3Cl)n2C)C1 [Example 62, trans-4-((2-(2,2′-dichloro-3′-(5-ethyl-1-methyl-4,5,6,7-tetrahydro-1H-imidazo[4,5-c]pyridine-2-carboxamido)biphenyl-3-ylcarbamoyl)-1-methyl-6,7-dihydro-1H-imidazo[4,5-c]pyridin-5(4H)-yl)methyl)cyclohexane-1-carboxylic acid]
12 | ≤ 10 | Cn1c(C(=O)Nc2cccc(-c3cccc(NC(=O)c4nc5c(n4C)CCN(C[C@H]4CC[C@H](C(=O)O)CC4)C5)c3Cl)c2Cl)nc2c1CCN(CCO)C2 [Example 65, trans-4-((2-((2,2′-dichloro-3′-(5-(2-hydroxyethyl)-1-methyl-4,5,6,7-tetrahydro-1H-imidazo[4,5-c]pyridine-2-carboxamido)-[1,1′-biphenyl]-3-yl)carbamoyl)-1-methyl-1,4,6,7-tetrahydro-5H-imidazo[4,5-c]pyridin-5-yl)methyl)cyclohexane-1-carboxylic acid]
13 | ≤ 10 | C[C@H](O)CN1CCc2c(nc(C(=O)Nc3cccc(-c4cccc(NC(=O)c5nc6c(n5C)CCN(C[C@H]5CC[C@H](C(=O)O)CC5)C6)c4Cl)c3Cl)n2C)C1 [Example 66, trans-4-((2-((2,2′-dichloro-3′-(5-((S)-2-hydroxypropyl)-1-methyl-4,5,6,7-tetrahydro-1H-imidazo[4,5-c]pyridine-2-carboxamido)-[1,1′-biphenyl]-3-yl)carbamoyl)-1-methyl-1,4,6,7-tetrahydro-5H-imidazo[4,5-c]pyridin-5-yl)methyl)cyclohexane-1-carboxylic acid]
14 | ≤ 10 | C[C@@H](O)CN1CCc2c(nc(C(=O)Nc3cccc(-c4cccc(NC(=O)c5nc6c(n5C)CCN(C[C@H]5CC[C@H](C(=O)O)CC5)C6)c4Cl)c3Cl)n2C)C1 [Example 67, trans-4-((2-((2,2′-dichloro-3′-(5-((R)-2-hydroxypropyl)-1-methyl-4,5,6,7-tetrahydro-1H-imidazo[4,5-c]pyridine-2-carboxamido)-[1,1′-biphenyl]-3-yl)carbamoyl)-1-methyl-1,4,6,7-tetrahydro-5H-imidazo[4,5-c]pyridin-5-yl)methyl)cyclohexane-1-carboxylic acid]
15 | ≤ 10 | CN1CCc2c(nc(C(=O)Nc3cccc(-c4cccc(NC(=O)c5nc6c(n5C)CCN(C[C@H]5CC[C@@H](C(=O)O)CC5)C6)c4Cl)c3Cl)n2C)C1 [Example 69, cis-4-((2-((2,2′-dichloro-3′-(1,5-dimethyl-4,5,6,7-tetrahydro-1H-imidazo[4,5-c]pyridine-2-carboxamido)-[1,1′-biphenyl]-3-yl)carbamoyl)-1-methyl-1,4,6,7-tetrahydro-5H-imidazo[4,5-c]pyridin-5-yl)methyl)cyclohexane-1-carboxylic acid]
16 | ≤ 10 | CCN1CCc2c(nc(C(=O)Nc3cccc(-c4cccc(NC(=O)c5nc6c(n5C)CCN(C[C@H]5CC[C@@H](C(=O)O)CC5)C6)c4Cl)c3Cl)n2C)C1 [Example 70, cis-4-((2-((2,2′-dichloro-3′-(5-ethyl-1-methyl-4,5,6,7-tetrahydro-1H-imidazo[4,5-c]pyridine-2-carboxamido)-[1,1′-biphenyl]-3-yl)carbamoyl)-1-methyl-1,4,6,7-tetrahydro-5H-imidazo[4,5-c]pyridin-5-yl)methyl)cyclohexane-1-carboxylic acid]
17 | ≤ 10 | Cn1c(C(=O)Nc2cccc(-c3cccc(NC(=O)c4nc5c(n4C)CCN(C[C@H]4CC[C@@H](C(=O)O)CC4)C5)c3Cl)c2Cl)nc2c1CCN(CC1CC1)C2 [Example 71, cis-4-((2-((2,2′-dichloro-3′-(5-(cyclopropylmethyl)-1-methyl-4,5,6,7-tetrahydro-1H-imidazo[4,5-c]pyridine-2-carboxamido)-[1,1′-biphenyl]-3-yl)carbamoyl)-1-methyl-1,4,6,7-tetrahydro-5H-imidazo[4,5-c]pyridin-5-yl)methyl)cyclohexane-1-carboxylic acid]
18 | ≤ 10 | Cn1c(C(=O)Nc2cccc(-c3cccc(NC(=O)c4nc5c(n4C)CCN(C[C@H]4CC[C@@H](C(=O)O)CC4)C5)c3Cl)c2Cl)nc2c1CCN(CCO)C2 [Example 74, cis-4-((2-((2,2′-dichloro-3′-(5-(2-hydroxyethyl)-1-methyl-4,5,6,7-tetrahydro-1H-imidazo[4,5-c]pyridine-2-carboxamido)-[1,1′-biphenyl]-3-yl)carbamoyl)-1-methyl-1,4,6,7-tetrahydro-5H-imidazo[4,5-c]pyridin-5-yl)methyl)cyclohexane-1-carboxylic acid]

Source: patent publication US10806785B2, “Immunomodulator compounds and methods of use” (Incyte Corporation, priority 2016, dated 2020)
